Experiment [1] has as its system NIH3T3 viability, CellTiter-Glo ATP luminescence, 48 h. The experiment in a line: toxicity toward NIH3T3 fibroblasts – cell-based, plate reader, dry powder, cytotoxicity control, dose response (AID 743405).
Assay in experiment [2]: as above
The note with it: NIH3T3 viability, CellTiter-Glo ATP luminescence, 48 h; at 35 µM (top of the series).

Experimental findings from PubChem BioAssay AID743405 (Broad Institute, 2014) are described below.

Activity calls are given as the source filed them.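 Rule for the calls: active = signal drops with AC50 under 10 µM, fitted no higher than twice the top valid tested dose; inactive = effect in the opposite direction, plus the rest.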

On to `COc1ccc(OCc2cccc(C(=O)O)c2)cc1`, for which the AC50 in experiment [1] was > 70 µM (inactive).

Consider `O=C1S/C(=C\c2ccc(N3CCOCC3)o2)C(=O)N1Cc1c(F)cccc1Cl`, for which the activity change, negative = cytotoxicity in experiment [2] is 92.2% (inactive).

Take `O=C(CN1C(=O)c2ccccc2S1(=O)=O)c1ccc2c(c1)OCCCO2`: the activity change, negative = cytotoxicity in experiment [2] was 8.65% (inactive).

As for `O=C(O)c1cccc(COc2ccccc2Cl)c1`, the activity change, negative = cytotoxicity in experiment [2] is -3.99% (inactive).

With `CCSc1nnc(NC(=O)c2nc(S(=O)(=O)Cc3ccc(F)cc3)ncc2Cl)s1`, the activity change, negative = cytotoxicity in experiment [2] was 45.4% (inactive).

Turning to `CCN(CC)Cc1c(O)ccc2c1O/C(=C\C=C\c1ccccc1)C2=O`, in experiment [2], the activity change, negative = cytotoxicity was 9.2% (inactive).

For the molecule `Cc1cc(S(=O)(=O)NCc2ccncc2)c(C)cc1Br`, in experiment [2], the activity change, negative = cytotoxicity is -1.39% (inactive).

Take `O=C(CN1C(=O)c2ccccc2S1(=O)=O)c1ccc(Cl)cc1Cl`: the activity change, negative = cytotoxicity in experiment [2] is 5.03% (inactive).

Regarding `COc1ccc(CNC(=O)C(c2ccc(C)cc2)N(Cc2cccs2)C(=O)c2ccc3c(c2)OCCO3)cc1` (stereo not drawn), the activity change, negative = cytotoxicity in experiment [2] is -4.92% (inactive).

`Cc1c(C)c2ccc(OCC(=O)Nc3ccccn3)c(C)c2oc1=O`: in experiment [1], the AC50 is 36.4 µM.

For `Cc1ccc(C(=O)Nc2cnc3ccccc3c2)cc1`, the activity change, negative = cytotoxicity in experiment [2] is -0.872% (inactive).

`COc1ccc(-n2ncc3c(N4CCCCC4)ncnc32)cc1`: in experiment [2], the activity change, negative = cytotoxicity is -2.9% (inactive).

In the case of `O=C(c1n[nH]c(=O)c2ccccc12)N1CCN(C2c3ccccc3-c3ccccc32)CC1`, the activity change, negative = cytotoxicity in experiment [2] is 8.43% (inactive).

`O=C(NCCc1ccccc1)c1ccc2c(c1)OCCCO2`: in experiment [2], the activity change, negative = cytotoxicity is 4.4% (inactive).

In the case of `Cc1ccc(-c2cn3cc(C)ccc3n2)cc1`, the AC50 in experiment [1] is > 70 µM (inactive).

`COc1ccc(CNC(=O)C(C)n2ccc3cc(S(=O)(=O)N4CCCCCC4)ccc32)cc1` (stereo not drawn): the activity change, negative = cytotoxicity in experiment [2] is -0.861% (inactive).

As for `Cc1cccc(CSc2cccc3cccnc23)c1`, in experiment [1], the AC50 was > 70 µM (inactive).

Turning to `Cc1cc(C(=O)COC(=O)c2ccccc2O)c(C)n1Cc1cccs1`, the activity change, negative = cytotoxicity in experiment [2] is -7.18% (inactive).

Consider `CCOC(=O)Cn1c(S(=O)(=O)Cc2ccccc2Cl)nc(-c2ccccc2)c1-c1ccccc1`, for which the activity change, negative = cytotoxicity in experiment [2] was 3.41% (inactive).

As for `O=C(NCCc1ccccc1)c1ccc2c(c1)OCCO2`, in experiment [2], the activity change, negative = cytotoxicity was 5.21% (inactive).

Regarding `Cc1nc(SCC(=O)Nc2nc3ccccc3s2)c(C#N)c(C)c1C`, the activity change, negative = cytotoxicity in experiment [2] was -9.06% (inactive).

Take `Cc1ccc(CNC(=O)CSc2c3c(nc4ccc(Cl)cc24)CCCC3)o1`: the activity change, negative = cytotoxicity in experiment [2] was 11.2% (inactive).

For the molecule `COc1c(CC=C(C)C)cc(C2CC(=O)c3c(O)cc(O)cc3O2)cc1CC=C(C)C` (stereo not drawn), in experiment [1], the AC50 is 32.9 µM.

The term AC50 denotes the midpoint of the concentration-response curve, whichever way the signal moves.
